Assay results taken from patent publication US8796323B2, “Defensin-like molecules as novel antimicrobial agents” (University of Maryland, Baltimore, priority 2010, dated 2014).
Entries after “also recorded” stand apart in the source; their conditions may differ.

Key:
[1] = ANTS/DPX leakage assay from large unilamellar vesicles
Protocol: Large unilamellar vesicles (LUVs) with the low molecular weight fluorophore/quencher pair (ANTS/DPX) encapsulated were prepared using the standard extrusion method. Specifically, phospholipids were dissolved in chloroform at a desired molar ratio, dried as a film by solvent evaporation. After removal of residual solvent, the lipid film was hydrated in the fluorescent solution containing 5 mM HEPES, 12.5 mM ANTS, 45 mM DPX, and 20 mM NaCl, pH 7.0, freeze-thawed for 10 cycles and extruded 10 times through 0.4-μm polycarbonate membranes. LUVs were separated from unencapsulated materials by gel filtration chromatography using a Sepharose CL-4B column eluted with 5 mM HEPES, 100 mM NaCl, pH 7.4 (high-salt). For leakage assays in a low-salt buffer, purified vesicles were further diluted with 5 mM HEPES containing 10 mM NaCl, pH 7.4.
Leakage of ANTS from LUVs, monitored on a LS-55 Perkin Elmer luminescence spectrometer, was characterized by an increase in fluorescence, which was quenched by DPX when encapsulated together inside liposomes (Ellens, H., et al., 1985, “H+- and Ca2+-induced fusion and destabilization of liposomes,” Biochemistry 24:3099-3106). 270 μl ANTS/DPX-encapsulated LUVs (in either high-salt or low-salt buffers) were added to each well of a 96-well plate to a final lipid concentration of 600 μM. 30 μl H2O was added to the first well of each row as a blank, and 30 μl 2.5% (v/v) Triton X-100 to the last (twelfth) well as the control for 100% leakage. Upon addition of 30 μl of a twofold dilution series of defensin, the fluorescence signal was recorded at 515 nm with an excitation wavelength of 353 nm, 10 nm bandwidths and a 390 nm cut-off filter in the emission path. Percent leakage is expressed as: % leakage=((Ft−F0)/(F100−F0))×100 where Ft is the fluorescence determined at different time points after addition of defensin, F0 is the background fluorescence of the “blank” cells, and F100 is the fluorescence of the control cells containing 0.25% Triton X-100. Lipid II Purification
Defensins are believed to kill bacteria by permeabilizing the membrane, causing leakage of intracellular content and eventually cell lysis and death. The present inventors tested the ability of six human α-defensins to induce leakage of fluorophores encapsulated in LUVs (See FIG. 1). […] (A) At high salt concentration (5 mM HEPES, 100 mM NaCl, pH 7.4). (B) At low salt concentration (5 mM HEPES, 10 mM NaCl, pH 7.4). LUVs were 250 nm in diameter and 600 μM (phospholipids) in concentration.
(A) Effects of surface charge on HNP1-induced leakage from LUVs of four different compositions: POPC (circle, surface charge=0), POPC/POPG=3:2 (square, surface charge=−0.4), POPC/POPG=2:3 (triangle, surface charge=−0.6), and POPG (diamond, surface charge=−1). (B) LUV (POPG:DPPC 1:1) leakage induced by L-HNP1 (circles) or D-HNP1 (squares). A two-fold dilution series of HNP1 peptides from 0.19 to 100 μg/ml was incubated with 600 μM LUVs for one hour before readings were taken. Error bars indicate the standard error in triplicate experiments.

[2] = test system: S. aureus; settings: literature (Ericksen 2005; Wei 2009); cited from earlier work
[3] = Surface Plasmon Resonance binding of HNP1 peptides and Lipid II; settings: ratio of Kd values
Protocol: Short-chain water-soluble Lipid II containing a lipid tail of three isoprene units was generated and purified essentially as described in Breukink, E., et al., 2003, “Lipid II is an intrinsic component of the pore induced by nisin in bacterial membranes,” J Biol Chem 278:19898-19903.
Typically, M. flavus vesicles (120 μmol lipid-Pi) were incubated together with 500 μmol UDP-GlcNAc, 500 μmol UDP-MurNAC-pentapeptide and 400 μmol farnesyl phosphate in 100 mM Tris-HCl pH 8.0, 5 mM MgCl2. The incubation lasted two hours at room temperature for 3-P. The synthesis of 3-Lipid II was followed using RP-8 reversed phase TLC (Merck) developed in 75% methanol. […]
Surface Plasmon Resonance binding experiments were carried out on a BIAcore T100 system (BIAcore Inc., Piscataway, N.Y.) at 25° C. […] Association and dissociation were assessed for 300 and 600 second, respectively. […] Binding isotherms were analyzed with manufacturer-supplied software for BIAcore T100 and/or GraphPad Prism 4.0.
The inventors used a Surface Plasmon Resonance (SPR) approach to determine the binding of HNP1 to Lipid II directly. Initial binding of L-HNP1, D-HNP1 and linear HNP1 to soluble Lipid II immobilized on the chip surface was determined. […]

HNP1: α-defensin Human Neutrophil Peptide 1, chemically synthesized and folded
leakage from LUVs, L- versus D-enantiomer ([1]; DPPC/POPG (1:1) LUVs, FIG. 2B): equally efficiently | HNP1-induced leakage from LUVs composed solely of neutral lipid POPC ([1]; POPC LUVs, surface charge 0, 0.19 to 100 μg/ml, regardless of incubation time): resistant to the attack by HNP1 at all concentrations used | HNP1-induced leakage from LUVs as POPG content increases ([1]; POPC:POPG 1:0, 3:2, 2:3, 0:1, POPG 0, 40%, 60%, 100%): increasingly pronounced | membrane activity (leakage of ANTS-DPX from POPG LUVs) ([1]; POPG LUVs, panel of six human α-defensins, FIG. 1): reduced | bactericidal activity against S. aureus / Gram-positive bacteria [2]: potently bactericidal; also recorded: kills Gram-positive bacteria very efficiently | affinity for Lipid II, L-HNP1 relative to D-HNP1 [3]: approximately five times higher affinity than the D-peptide
